Measurements: BindingDB's records for doi:10.1016/j.bmcl.2004.09.053 (Avenida De La Industria, 2004)

Assays:
Test in all cases: CDK Kinase Inhibition Assay
[1] = target: Cyclin-dependent kinase 2/G1/S-specific cyclin-E1 (Homo sapiens, UniProt P24941)
Description: (§1) In vitro CDK assay using purified enzyme, was incubated at room temperature with substrate, and test compounds in the presence of ATP/[gamma-33P]ATP. 33P incorporation was measured with a Top Count (Packard). IC50 is the inhibitor concentration which inhibits 50% of kinase activity that catalyzes the transfer of the terminal phosphate from 33P labeled ATP to the substrate.

[2] = target: Cyclin-dependent kinase 4/G1/S-specific cyclin-D1 (Homo sapiens, UniProt P11802); settings: 25 °C
Chain of Cyclin-dependent kinase 4/G1/S-specific cyclin-D1 (P11802 whole entry): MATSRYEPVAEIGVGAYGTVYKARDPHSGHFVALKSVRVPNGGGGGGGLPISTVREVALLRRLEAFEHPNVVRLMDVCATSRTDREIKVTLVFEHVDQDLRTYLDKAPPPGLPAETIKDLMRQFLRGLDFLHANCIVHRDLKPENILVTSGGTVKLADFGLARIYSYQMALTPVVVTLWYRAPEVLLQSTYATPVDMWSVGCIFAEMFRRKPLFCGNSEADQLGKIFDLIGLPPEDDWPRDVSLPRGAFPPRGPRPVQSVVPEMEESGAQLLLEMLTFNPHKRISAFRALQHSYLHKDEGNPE
Chain of Cyclin-dependent kinase 4/G1/S-specific cyclin-D1 (P24385 whole entry, further chain): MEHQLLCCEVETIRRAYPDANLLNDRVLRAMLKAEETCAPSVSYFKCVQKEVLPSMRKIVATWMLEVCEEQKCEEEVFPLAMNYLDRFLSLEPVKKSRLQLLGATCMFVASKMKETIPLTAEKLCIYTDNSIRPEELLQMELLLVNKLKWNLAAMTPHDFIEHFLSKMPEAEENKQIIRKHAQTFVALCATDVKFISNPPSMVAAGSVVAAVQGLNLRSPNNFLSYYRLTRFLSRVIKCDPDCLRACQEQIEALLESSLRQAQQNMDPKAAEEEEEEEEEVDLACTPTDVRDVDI
Description: as §1

[3] = target: Cyclin-dependent kinase/G2/mitotic-specific cyclin- 1 (Homo sapiens, UniProt P06493); settings: 25 °C
Chain of Cyclin-dependent kinase/G2/mitotic-specific cyclin- 1 (P06493 whole entry): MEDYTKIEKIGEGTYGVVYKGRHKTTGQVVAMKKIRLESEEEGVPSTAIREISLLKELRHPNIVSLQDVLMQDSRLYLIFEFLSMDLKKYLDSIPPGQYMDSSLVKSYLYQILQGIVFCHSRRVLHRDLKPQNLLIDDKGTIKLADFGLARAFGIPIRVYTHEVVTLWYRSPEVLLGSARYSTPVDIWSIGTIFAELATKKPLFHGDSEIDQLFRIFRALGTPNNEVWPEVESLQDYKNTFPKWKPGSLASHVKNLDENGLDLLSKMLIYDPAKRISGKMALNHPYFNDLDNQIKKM
Chain of Cyclin-dependent kinase/G2/mitotic-specific cyclin- 1 (P14635 whole entry, further chain): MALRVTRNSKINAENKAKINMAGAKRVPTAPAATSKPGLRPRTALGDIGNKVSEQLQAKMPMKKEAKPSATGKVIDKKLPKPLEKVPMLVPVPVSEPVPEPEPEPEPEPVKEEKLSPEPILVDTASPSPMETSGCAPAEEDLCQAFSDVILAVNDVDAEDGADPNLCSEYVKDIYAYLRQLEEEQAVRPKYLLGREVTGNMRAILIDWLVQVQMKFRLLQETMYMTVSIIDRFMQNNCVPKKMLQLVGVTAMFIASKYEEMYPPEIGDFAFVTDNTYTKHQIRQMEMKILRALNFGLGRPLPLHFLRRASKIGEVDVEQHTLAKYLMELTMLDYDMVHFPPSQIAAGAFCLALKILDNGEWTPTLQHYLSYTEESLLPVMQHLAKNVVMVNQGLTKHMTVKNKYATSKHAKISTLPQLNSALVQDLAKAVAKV
Description: as §1

| Compound | IC50 ([1]; 25 °C) | IC50 ([1]; pH 7, 22 °C) | IC50 [2] | IC50 [3] |
| --- | --- | --- | --- | --- |
| CCN(CC)CCOc1cc(F)c(C(=O)c2c(N)nc3ccc(C(=O)c4c(Cl)cccc4Cl)cn23)c(F)c1 [6-[(2,6-dichlorophenyl)carbonyl]-3-({4-[2-(diethylamino)ethoxy]-2,6-difluorophenyl}carbonyl)imidazo[1,2-a]pyridin-2-amine] | 0.984 µM | – | – | – |
| N#C/C=C(\c1ccc2nc(N)c(C(=O)c3c(F)cccc3F)n2c1)c1c(F)cccc1F [(2E)-3-{2-amino-3-[(2,6-difluorophenyl)carbonyl]imidazo[1,2-a]pyridin-6-yl}-3-(2,6-difluorophenyl)prop-2-enenitrile] | – | 0.16 µM | 1.55 µM | 0.053 µM |
| N#C/C=C(/c1ccc2nc(N)c(C(=O)c3c(F)cccc3F)n2c1)c1c(F)cccc1F [(2Z)-3-{2-amino-3-[(2,6-difluorophenyl)carbonyl]imidazo[1,2-a]pyridin-6-yl}-3-(2,6-difluorophenyl)prop-2-enenitrile] | 0.896 µM | – | – | – |
